For the data set, the system named is FHH rats with superimposed hypertension. Nature of the data set: FHH rat with superimposed hypertension (uninephrectomy, DOCA, 1% NaCl). It counts as in vivo. The method, then:
Experiments were performed using male FHH rats of 9-12 weeks of age. These animals were provided by the University of Mississippi Medical Center and approved by the American Association for Accreditation of Laboratory Animal Care (AAALAC). All protocols were approved by the Institutional Animal Care and Use Committee of the University of Mississippi Medical Center. Rats were fed ad libitum, and provided with a purified AIN-76 rodent feed containing 0.4% NaCl (Dyets, Bethlehem, Pa.) after weaning. Fawn-hooded hypertensive (FHH) rat is a genetic model of spontaneous hypertension associated with glomerular hyperfiltration and proteinuria. In order to promote glomerular damage in this rat, DOCA strips were implanted after single (one) kidney extraction.
Specifically, FHH rats were anesthetized with isoflurane and telemetry transmitters (model TA11PAC40, Data Sciences International, St. Paul, Minn.) were implanted as described in ‘Williams, J. M. et al. […] Regul Integr Comp Physiol (2012)’. Briefly, surgery was performed under 2% to 3% isoflurane-O2, and the catheter of the device was inserted into the left femoral artery and guided upstream to the aorta. Body part of the telemetry unit was placed in the lateral cavity of the left leg and sutured with muscle tissue. Skin was then closed. To prevent infection, animals were given Baytril (10 mg/kg) and Rimadyl (5 mg/kg), a long-acting analgesic to control surgical pain. After surgery, rats were housed in individual cages in a quiet air-conditioned room environment with a 12:12 hour light-dark cycle and it took a week to fully recover from surgery. Thereafter, the basic mean arterial blood pressure (MAP) and proteinuria were measured for 4 hours (10 am to […]) before the rats were housed in the metabolic cage. Proteinuria was measured using the Bradford method and BSA (Bio-Rad Laboratories, Hercules, Calif.) as a standard.
One week after the transmitter insertion, rats were uninephrectomized as described in Wang, X. et al. Am J Physiol Renal Physiol (2016). Briefly, rats were anesthetized with 2-3% isoflurane-O2 and the right flank was dissected in aseptic condition. The right kidney was gently lifted and threaded tightly around the renal vessels and ureters. The right kidney was extracted by cutting the distal ends of the renal vessels and ureters. The incision was closed with a continuous subcutaneous stitch, after which the skin was further closed. After the rat's right kidney was removed, DOCA pellets (200 mg, Innovative Research of America) was subcutaneously implanted in the neck.
After single kidney extraction and DOCA transplant surgery, rats had recovery time for 3 days. Rats were provided with water containing 1% NaCl in place of distilled water, and randomly divided into two groups: Group 1 (n=15) was administered with BC-KI-00053 (25 mg/kg daily) by gastrointestinal gavage; Group 2 (n=15) was administered with the same volume (2.5 ml/kg daily) of vehicle (corn oil, polyethylene glycol 400, Tween 80 and methylcellulose) by gastrointestinal gavage. Blood pressure and proteinuria were measured weekly for 3 weeks in the experimental group. At the end of the experiment, rats were anesthetized with isoflurane and blood samples were taken to measure creatinine levels. Rats were then flushed with 50 ml of 0.9% NaCl through aorta and perfused with 20 ml of 4% paraformaldehyde. Kidneys and hearts were collected for histological evaluation.
Paraffin sections prepared with a thickness of […] were stained with Masson's trichrome to measure the degree of glomerular damage and renal interstitial fibrosis. Images were obtained using a Nikon Eclipse 55i microscope and NIS-Elements D 3.0 software equipped with Nikon DS-Fil color camera (Nikon, Melville, N.Y.). The degree of glomerular damage was assessed by the blinded experimenter, rating from 0 to 4+ for 30-40 […]. […]

Setting [1] is: 25 mg/kg daily 3 weeks, Masson's trichrome.
Where [2] appears, read: 25 mg/kg daily, after two weeks of treatment.
[3] abbreviates: basal, before treatment, mean±SEM.

Structures are written as SMILES.

On to `COc1ccc(CCN(Cc2ccc(C(=O)O)cc2)c2nc3cccc(F)c3s2)cc1` [BC-KI-00053, 4-({(7-fluorobenzo[d]thiazol-2-yl)[2-(4-methoxyphenyl)ethyl]amino}methyl)benzoic acid], for which the “renal tissue infiltration of monocytes/macrophages (CD68 IHC)” value (25 mg/kg daily 3 weeks) was “significantly reduced”. In addition, the cortical fibrosis under setting [1] is on record as 5.79±0.48%. This molecule also had a renal medulla fibrosis under setting [1] of 7.40±0.56%. For the setting “25 mg/kg daily 3 weeks, Sirius red, right ventricular insertion point”, this molecule showed a cardiac fibrosis of 9.14±2.18%. The “mean glomerular injury score” value (25 mg/kg daily 3 weeks, score 0 to 4+) is reported as 1.49±0.05. In addition, for the setting “25 mg/kg daily gavage, 3 weeks”, the “body weight reduction during the study period” value was “approximately 10%”. The molecule further yielded an MAP (25 mg/kg daily, after one week of treatment) of 174.4±3.83 mmHg; an MAP under setting [2] of 168.8±3.74 mmHg; an MAP (25 mg/kg daily, three weeks) of 176.9±5.83 mmHg; an MAP under setting [3] of 120.1±0.62 mmHg. Besides, the proteinuria was 285.5 ± 47.48 mg/day under setting [2]; 433.1 ± 60.59 mg/day (25 mg/kg daily, study completed (3 weeks)); 51.0 ± 4.9 mg/day (baseline, before treatment). This molecule also had a plasma creatinine concentration (25 mg/kg daily, end of experiment) of 0.48 ± 0.02 mg/dL. The same molecule gave a basal body weight under setting [3] of 304.7 ± 5.39 g.

(Values after US11378572B2, “Therapeutic agent for immune cell migration-caused disease and method for screening same” (ZYMEDI CO., LTD., priority 2017, dated 2022).)
